Consider six compounds from article PMC11484942, “Rumicidins are a family of mammalian host-defense peptides plugging the 70S ribosome exit tunnel” (Nature Communications, 2024).

The test system of series [1] is E. coli BW25113 ΔtolC pDualrep2. The series is described as follows: pDualrep2 double-reporter assay. In kind it is cell-based, Escherichia coli. The settings on record: agar plate, overnight 37 °C. As to the method: For in vivo bioactivity test, the reporter strain BW25113 ΔtolC-pDualrep2 was used as previously described. Briefly, 10 µL of solutions of tested peptides (0.2 mM of full-length rumicidin isoforms; 0.5 mM of Rum-1[1-22] and Rum-1[9-29]) were applied to an agar plate contained a lawn of the reporter strain. 5 mg/ml erythromycin (Ery, 1 µL) and 25 µg/ml levofloxacin (Lev, 1 µL) solutions were used as control samples. After being incubated overnight at 37 °C, the plate was scanned by ChemiDoc (Bio-Rad) using “Cy3-blot” settings for RFP and “Cy5-blot” for the Katushka2S protein. At least, two independent experiments were performed, and the observed effects were the same.
(A reporter such as luciferase makes a cellular process visible.)

The test system of a further series is E. coli 1057 WT. In words: microbe, parasite or virus in culture. The series is classed as cell-based, Escherichia coli. The settings on record: Escherichia coli, 1057WT, 24 h; MHB + 0.9% NaCl.
The next series has as its system E. coli strains. As to conditions: cited from earlier work. The source says: This highly cationic fragment is important for both high affinity binding of Bac7 to the ribosome and its penetration inside bacterial cells. The effect of N-terminal shortening of rumicidin-1 was not so marked: activities of the analogs 4-29 and 6-29 decreased only two-fold, while the MIC values of the analogs 9-29 and 11-29 against E. coli were ≥4- ...

The subject of a further series is E. cloacae XDR CI 4172. In kind it is cell-based, Enterobacter cloacae. The settings on record: XDR CI 4172, 24 h. As to the method:
(§1) The reduction of resazurin to resorufin was recorded.

The test system of a further series is E. coli. The series is classed as cell-based, Escherichia coli. The source says: of bacterial cells washed with sodium phosphate buffer, whereas the addition of 0.9% NaCl and/or divalent cations minimized or even abolished the activity (Supplementary Fig. 14). The same was true for Bac7[1-22] in most cases (Supplementary Fig. 14), except for the maximum […]
“NaPB + 0.9% NaCl”), at which significant outer membrane damage was observed. Thus, in the context of the host immune system operating in a complex environment containing NaCl and divalent cations, the most likely scenario is that rumicidin's ability to disrupt the integrity of the outer membrane is suppressed. Antibacterial activity of rumicidin-1 is inhibited in the presence […]
mixture, respectively), and the electrical double layer around the cell seems to be a key barrier on the way into the cell of highly charged and relatively hydrophilic PrAMP. Perhaps, translocation of rumicidin-1 into the periplasmic space depends on electrostatic interaction with the outer membrane followed by porin-mediated uptake (the gene knockout of ompF resulted in a 4-fold increase in MIC, Fig. 5a). […]
Fig. 4), (iv) experiments on inhibition of peptide bond formation Supplementary Fig. 5, and (v) structural studies of the rumicidin complex with the ribosome by Cryo-EM (Fig.4).
Point 2. Authors claim that the effect of these peptides on membrane integrity may be due to the presence of aromatic Trp and Phe residues in their structure. However, effect of the rumicidin-1 variant W23A,F24A is not shown.
To fill this gap, we performed a comparative analysis of the ability of rumicidin-1 and its analogue [W23A,F24A] to increase the permeability of E. coli membranes under different environmental conditions. In all cases in the […]

In the next series the test system is E. coli BW25113 ΔsbmA. The series is classed as cell-based, Escherichia coli. As to the method:
as §1

The subject of the next series is E. coli BW25113. In words: MIC broth microdilution. As to conditions: 24 h 37 °C, median of ≥3 experiments; for Minimum inhibitory concentration MHB: Mueller-Hinton broth without salt. In kind it is cell-based, Escherichia coli. As to the method: as §1
For another series, the system named is S. aureus ATCC 29213. The series is classed as cell-based, Staphylococcus aureus. As to conditions: ATCC 29213, 24 h. As to the method:
as §1

The test system of series [2] is HEK293T (transformed embryonic kidney cells). The series is described as follows: MTT cytotoxicity. In kind it is cell-based, human. The settings on record: mean. As to the method: (§2) Hemolytic activity of the peptides was tested against the fresh suspension of human red blood cells (hRBC) using the hemoglobin release assay as described previously. Two experiments were performed with the hRBC from blood samples collected from healthy donors by certified medical personnel upon informed written consent. All procedures were approved by the Ethics Committee of the Institute of Experimental Medicine (protocol 1/20 of 2/27/2020) and comply with the ethical principles of the Declaration of Helsinki. The quantitative data were represented as average means with standard deviations. The colorimetric 3-(4,5-dimethylthiazol-2-yl)-2,5-diphenyltetrazolium bromide (MTT) dye reduction assay was used to determine cytotoxicity of the peptides against human keratinocyte cell line (HaCaT) and transformed human embryonic kidney cells (HEK293T). Both cell lines were purchased from American Type Culture Collection (ATCC). 10^4 cells per well in Dulbecco’s modified Eagle’s medium (DMEM/F12) supplemented with 10% fetal bovine serum (FBS, Invitrogen) were placed into 96-well plates and then cultured in the CO2-incubator (5% CO2, 37 °C). After the media were removed, the peptides were dissolved in 100 µL of the same medium and added to cell cultures at different final concentrations. 20 h later, 20 μL of MTT (5 mg/mL, Sigma) was added to each well, and the plates were incubated for 4 h at 37 °C. Then, the media were discarded and 100 µL DMSO-isopropanol mixture at a ratio of 1:1 (v/v) was added to each well to dissolve the crystallized formazan. The absorbance at 570 nm was measured by a microplate reader AF2200 (Eppendorf). An optical density in the wells containing cells cultured without the peptides was assumed to represent 100% cell viability. Two independent experiments were performed for each peptide.

In a further series the test system is HaCaT (keratinocytes). The series is described as follows: MTT cytotoxicity. In kind it is cell-based, human. As to the method: as §2
For series [3], the system named is human red blood cells (hRBC). The series is described as follows: Hemolysis (hemoglobin release assay). In kind it is cell-based. The settings on record: mean. As to the method:
as §2

Series [4] concerns Mycobacterium smegmatis mc(2)155. The series is classed as cell-based. As to conditions: Mycobacterium mc(2)155, 24 h. As to the method: as §1
In a further series the test system is 70S initiation complexes. The series is described as follows: Peptide bond formation (fMet-[14C]Val dipeptide). In kind it is biochemical. As to conditions: 30 µM amicoumacin A; 2 min 37 °C; three replicates; intact complexes 77 ± 5%. As to the method:
Initiation complexes and ternary complexes were prepared as described previously[21],[59]. Where necessary initiation complexes were supplemented with rumicidin-1 (1 μM) or amicoumacin A (30 μM) followed by additional incubation for 5 min at 37 °C. To analyze formation of dipeptide fMet-Val, 0.2 μM 70S initiation complexes containing fMet-tRNA^fMet in the P site were mixed with 0.375 μM ternary complexes EF-Tu⋅GTP⋅[^14C]Val-tRNA^Val (444 dpm/pmol) and incubated for 2 min at 37 °C. Then samples were quenched with 1/10 volume of 5 M KOH and hydrolyzed for 30 min at 37 °C. Samples were neutralized with 1/10 volume of glacial acetic acid and analyzed by reversed-phase HPLC on RP8 (Merck) with an acetonitrile gradient in 0.1% trifluoroacetic acid. Percentage of synthesized dipeptide was determined by incorporation of the radioactive label as a ratio of peptide formed to the amount of the 70S ribosomes in the reaction mixture, as described earlier. Experiments were done in three replicates.

For series [5], the system named is E. coli 1057 R2 (rpoS^Q3stop, macB^N470D). As to conditions: MHB + 0.9% NaCl. As to the method: Minimum inhibitory concentrations (MIC) were determined by broth microdilution assay based on Clinical and Laboratory Standards Institute (CLSI) guidelines using BSA in the growth medium to minimize AMP nonspecific adsorption. Bacterial test cultures were grown in the Mueller-Hinton broth (MHB, Sigma) at 37 °C to mid-log phase and then diluted with the 2× MH medium supplemented with 1.8% NaCl (or without salt) so that to reach a final cell concentration of 10^6 CFU/mL. 50 µL of the obtained bacterial suspension were added to aliquots of 50 µL of the peptide solutions serially diluted with sterilized 0.1% bovine serum albumin (BSA) in 96-well flat-bottom polystyrene microplates (Eppendorf #0030730011). […] To verify MIC values, the respiratory activity of the bacteria was determined. Briefly, 5 µL of 0.5 mg/mL resazurin (Sigma) was added to the wells after 24 h (or after 48 h for M. smegmatis) of incubation, and the plate was incubated for additional 3 h. In some cases, MICs were determined in the Lysogeny Broth (LB) or Middlebrook 7H9 medium. The reduction of resazurin to resorufin was recorded. […] The results were expressed as the median values determined based on at least three independent experiments performed in triplicate.
Resistance induction experiments were performed using the previously described method. This approach allows for monitoring MIC values after each transfer. Briefly, on the first day, the overnight culture of the wild-type bacteria was diluted with the 2× MHB supplemented with 1.8% NaCl (or without salt) to reach a final cell concentration of 10^6 CFU/mL. 50 µL of the obtained bacterial suspension were added to aliquots of 50 µL of the peptide solutions serially diluted with the sterilized 0.1% BSA in 96-well flat-bottom polystyrene microplates. After incubation for 20 ± 2 h at 37 °C and 950 rpm, MICs were determined as described above. For each subsequent daily transfer, 2–4 μL of the inoculum taken from the first well containing a sub-inhibitory drug concentration was diluted with 2 mL of the fresh 2× MHB supplemented with 1.8% NaCl (or without salt). […] Multiple repeated passages in the presence of antimicrobial agents were performed for each bacterial strain during the experiment. Bacteria that grew at the highest concentrations of AMPs on the final day were passaged further 3 times on drug-free agar plates before determining the final MIC value.

Read-outs that look alike come from different tables or passages of the source. Ends that are not written are not given here.

Protocol for E. coli 1057 WT: Minimum inhibitory concentrations (MIC) were determined by broth microdilution assay based on Clinical and Laboratory Standards Institute (CLSI) guidelines using BSA in the growth medium to minimize AMP nonspecific adsorption[49]. Bacterial test cultures were grown in the Mueller-Hinton broth (MHB, Sigma) at 37 °C to mid-log phase and then diluted with the 2× MH medium supplemented with 1.8% NaCl (or without salt) so that to reach a final cell concentration of 10^6 CFU/mL. 50 µL of the obtained bacterial suspension were added to aliquots of 50 µL of the peptide solutions serially diluted with sterilized 0.1% bovine serum albumin (BSA) in 96-well flat-bottom polystyrene microplates (Eppendorf #0030730011). […] To verify MIC values, the respiratory activity of the bacteria was determined. Briefly, 5 µL of 0.5 mg/mL resazurin (Sigma) was added to the wells after 24 h (or after 48 h for M. smegmatis) of incubation, and the plate was incubated for additional 3 h. In some cases, MICs were determined in the Lysogeny Broth (LB) or Middlebrook 7H9 medium. The reduction of resazurin to resorufin was recorded. […] The results were expressed as the median values determined based on at least three independent experiments performed in triplicate.

Take `CC[C@H]1OC(=O)[C@H](C)[C@@H](O[C@H]2C[C@@](C)(OC)[C@@H](O)[C@H](C)O2)[C@H](C)[C@@H](O[C@@H]2O[C@H](C)C[C@H](N(C)C)[C@H]2O)[C@](C)(O)C[C@@H](C)C(=O)[C@H](C)[C@@H](O)[C@]1(C)O` [Erythromycin]: the reporter induction result in series [1] was “strongly induced biosynthesis of Katushka2S, but not of RFP”. Also, the MIC in the series with E. coli 1057 WT was 1020 µM.

In the case of “Bac7[5-23]: Bac7 fragment lacking four N-terminal residues (RRIR) (PRPPRLPRPRPRPLPFPRP; Bactenecin-7; UniProt P19661 135-153, looked up, fragment)”, in the series with E. coli strains, the “fold increase in MIC on deletion of four N-terminal residues (RRIR)” value was not below 16 fold.

“RARRPRPPKPRPPHRPRPRPRPWFPPRFP [Rumicidin-1]”: in the series on E. cloacae XDR CI 4172, the “MIC E. cloacae XDR CI 4172” value was 2 µM. Further, the MIC is 4 µM with E. coli (MH medium with NaCl); 16 to 32 µM with E. coli (MH medium with NaCl and divalent cations (mixture)); 8 µM against E. coli (MH medium with divalent cations); 1 µM in the series with E. coli (salt-free MH medium); not below 64 µM in the series on E. coli BW25113 ΔsbmA (MHB + 0.9% NaCl); 1 µM in the series on E. coli BW25113 ΔsbmA (salt-free MHB). In addition, in the series with E. coli BW25113 (Mueller-Hinton broth + 0.9% NaCl, listed as WT), the “Minimum inhibitory concentration MHB + 0.9% NaCl” value was 4 to 8 µM. The “Minimum inhibitory concentration MHB” value in the series on E. coli BW25113 worked out at 1 µM; in the series on E. coli BW25113 (listed as WT) it was 2 µM. Further, the “MIC S. aureus ATCC 29213” value against S. aureus ATCC 29213 was more than 32 µM. For the same compound, the HEK293T cell viability was determined as 105.704% in [2] (1 µM); 104.142% in series [2] (2 µM); 106.626% in series [2] (4 µM); 103.664% in [2] (8 µM); 105.32% in series [2] (16 µM); 89.704% in [2] (32 µM). Also, the HEK293T cell viability in [2] (64 µM) is 72.479%. Further, the HaCaT cell viability in the series on HaCaT (keratinocytes) (1 µM) is 104.258%; in the series on HaCaT (keratinocytes) (2 µM), 105.615%; with HaCaT (keratinocytes) (4 µM), 107.778%; with HaCaT (keratinocytes) (8 µM) it was 104.973%; in the series on HaCaT (keratinocytes) (16 µM) it was 107.318%; in the series with HaCaT (keratinocytes) (32 µM) it was 107.645%. In the series on HaCaT (keratinocytes) (64 µM), the HaCaT cell viability was found to be 99.839%. Besides, the Hemolysis in series [3] (0.25 µM) was found to be 0.134%; in series [3] (0.5 µM), 0.357%; in series [3] (1 µM) it was 0.408%; in series [3] (2 µM) it was 0.624%; in series [3] (4 µM), 0.667%; in [3] (8 µM), 0.801%. For the same compound, the Hemolysis is recorded as 0.83% in series [3] (16 µM), 0.911% in series [3] (32 µM) and 0.932% in series [3] (64 µM). Further, in [4], the “MICs depending on the test medium” value is 0.125 to 0.5 µM.

Consider “Bac7[5-35]: Bac7 fragment lacking four N-terminal residues (RRIR) (PRPPRLPRPRPRPLPFPRPGPRPIPRPLPFP; Bactenecin-7; UniProt P19661 135-165, looked up, fragment)”, for which the “fold increase in MIC on deletion of four N-terminal residues (RRIR)” value in the series with E. coli strains was not below 16 fold.

As to `CC(C)C[C@H](NC(=O)[C@@H](O)[C@@H](O)[C@@H](N)CC(N)=O)[C@@H]1Cc2cccc(O)c2C(=O)O1` [amicoumacin A], the “fMet-[14C]Val dipeptide formed” value with 70S initiation complexes is recorded as 72 ± 7%.

In the case of “RDRRRRPPRPRPPHRPRPRPLPWFPPRFP [Rumicidin-2]”, in [5], the MIC is more than 64 µM. Besides, in the series with S. aureus ATCC 29213, the “MIC S. aureus ATCC 29213” value was more than 32 µM. The “Minimum inhibitory concentration (MIC)” value in [4] was determined as 1 µM.
